Experiment: Human HepG2 cell viability assay in 384 well format
Format: toxicity, cell-based
Design: dose 125 nL, time 70.5 hour; cytotoxicity at 70.5 h: concentration not given beside the values
Conditions: HepG2 cells, read-out: Inhibition

Row | SMILES | cytotoxicity at 70.5 h [%]
1 | CN1CCN(CCCN(C)S(=O)(=O)CC2CCCCC2)CC1 | -3.5
2 | O=C([C@@H]1CCO[C@@H]2CCN(CC3CC3)C[C@H]21)N1CCCC1 | -2.49
3 | CN(C(=O)Cc1ccn(C)c1)C1CCCN(C2Cc3ccccc3C2)C1 (stereo not drawn) | 1.52
4 | Cc1cnccc1CN1Cc2ccccc2O[C@]2(CC[C@H](CO)CC2)C1 | 15.1
5 | CNC(=O)c1ccnc(CC2COc3c(cccc3OC)C2)c1 (stereo not drawn) | -25.4
6 | CCOCCCNC(=O)Nc1ccc(F)c(C(N)=O)c1 | 6.9
7 | Cn1cnc2c1CCN(Cc1ccc(C(=O)N3CCCC3)cc1)C2 | -3.6
8 | O=C1C(N2CCOCC2)CCCN1Cc1cccc(C(F)(F)F)c1 (stereo not drawn) | -17.4
9 | c1csc(CN2CCn3c(Cn4cncn4)cnc3C2)n1 | -17.2
10 | CN(C)[C@@H]1CCN(C(=O)c2ccsc2)[C@H]1Cc1cnn(C)c1 | -14.4
11 | Fc1cnc(N2CCCn3cnc(COc4cccnc4)c3C2)nc1 | -2.49
12 | Cc1n[nH]c(C)c1-c1cc(-c2cccc(O)c2)nc(N)c1C#N | -8.76
13 | Cc1ccc(N2C[C@H](O)[C@@H](N3CCN(c4ccccn4)CC3)C2)nn1 | -11.3
14 | CC(C)[C@H](NS(C)(=O)=O)C(=O)NCc1cc(-c2ccccc2)n[nH]1 | -10.8
15 | Cc1cc(C)c(CNC(=O)N2CCC(N3CCCCC3)CC2)c(=O)[nH]1 | -7.65
16 | Cc1nc(N)sc1C(=O)N[C@H]1CN(CCO)C[C@@H]1C1CC1 | -2.54
17 | CCc1ccc(S(=O)(=O)Nc2c(C)cccc2C(=O)O)s1 | 18.4
18 | COc1cccc(CC(=O)NC(C)c2nc3cccnc3n2C(C)C)c1 (stereo not drawn) | -2.69
19 | CNC(=O)N1CC[C@@H]2CN(Cc3cccc(OC)c3)S(=O)(=O)[C@@H]2CC1 | -11.1
20 | Cc1ccc2c(cnn2CCC(=O)NCc2csc(C)n2)c1 | -14.7
21 | Cc1cc(C)c(CN2CCCC23Cc2ccccc2CNC3=O)c(C)c1 (stereo not drawn) | -9.48
22 | CC(=O)N(Cc1ncc(C(C)C)o1)C1CCN(CCn2cncn2)C1 (stereo not drawn) | -3.83
23 | Cc1nn(C)cc1CN1CCCC(n2c(=O)oc3ccccc32)C1 (stereo not drawn) | 0.702

Row | SMILES | cytotoxicity at 70.5 h [%]
24 | Nc1nccc(NCc2cc3n(n2)CCCN(C(=O)C2CCC2)C3)n1 | -6.62
25 | Fc1ccc2[nH]c(CO[C@H]3CN(CC4CC4)C[C@H]3F)nc2c1 | 1.66
26 | NCC(=O)N1CCCC(c2ccnc(Nc3cnccn3)n2)C1 (stereo not drawn) | -7.18
27 | NC[C@H]1CC[C@H](C(NC(=O)CC2CCCCC2)c2ccccn2)CC1 (stereo partly drawn) | -6.94
28 | Cc1ccc2ncccc2c1CN1CC[C@H](N(C)C)[C@H](CCC(=O)O)C1 | -7.41
29 | Cc1ccccc1N1CC2(CCN(c3nncs3)C2)CC1=O (stereo not drawn) | -1.13
30 | CC(NC(=O)CNC(=O)OC(C)(C)C)c1ccc(Cl)s1 (stereo not drawn) | 10.9
31 | CCn1nc(C)c2ncnc(NCCN3CCOCC3)c21 | -3.9
32 | O=C(Nc1ccccc1)[C@H]1CN2CC[C@H]1C[C@@H]2Cn1cc(CCO)nn1 | -3.35
33 | N#Cc1nc(COc2ccc3c(c2)OCO3)oc1N1CCCCCC1 | -21.8
34 | Cc1cccc(-c2c[nH]c(C3CCCN3C(=O)Cn3cc(C)cn3)n2)c1 (stereo not drawn) | 6.62
35 | C=C(C)CN1CCC(NC(=O)NCCc2ccccc2OC)CC1 | -7.86
36 | COCc1nccc(C2CCCN(Cc3ccc(C#N)cc3F)C2)n1 (stereo not drawn) | -1.86
37 | CC(C)C1=NOC2(CCN(Cc3c[nH]c4ccccc34)CC2)C1 | 4.04
38 | O=C(CCc1ccccc1)C1CCCN(C(=O)c2cncc(Cl)c2)C1 (stereo not drawn) | -25.5
39 | O=C(c1ccc(N2CCCC2)nn1)N1CCCc2cc(F)c(F)cc21 | -1.17
40 | Cc1nc(C2CCCN(C(=O)CO)C2)cc(N2CCOCC2)n1 (stereo not drawn) | -4.97
41 | Cn1c(C2CC2)nc2c1CCN(CC(=O)Nc1nccs1)C2 | -6.18
42 | O=C([C@H]1CC[C@@H]2[C@@H](CCN2Cc2nccs2)O1)N1CCCCO1 | -5.06
43 | CSc1ccc(NC(=O)NCc2nncn2C2CC2)cc1F | 2.39
44 | CC(CO)NCc1csc2c1CCCC2 (stereo not drawn) | 0.572
45 | CCOCC1CN(S(=O)(=O)CC)Cc2cnn(CC3CC3)c21 (stereo not drawn) | 6.24
46 | CCc1nc(CN2CCN(C(=O)C3(C#N)CCCC3)CC2)cs1 | -2.5

Row | SMILES | cytotoxicity at 70.5 h [%]
47 | COCc1ncc(CN2CCN(C)C(=O)C2C)cn1 (stereo not drawn) | -13.5
48 | O=C(O)c1ccc2c(CN3CCCC3)c[nH]c2c1 | 5.69
49 | O=C(NC[C@]12COC[C@H]1CN(Cc1ccncc1)C2)c1ccco1 | -10.9
50 | N#Cc1ccc(CN2CCOCC2)cc1 | 2.27
51 | CN1CCCN(C(=O)c2cnsn2)c2cc(F)ccc21 | 25.1
52 | CC[C@H](C)[C@@H](CO)NC(C)Cc1ccc(C)cc1 (stereo partly drawn) | -2
53 | CN1CCC(Cc2cccc(-c3cc(F)ccc3C(=O)O)n2)CC1 | -4.18
54 | CC(C)n1cc(C(=O)NC2CN3CCC2CC3)c2ccccc21 (stereo not drawn) | -20.2
55 | CS(=O)(=O)N1CCN(C(=O)CCn2cccn2)CC1 | -6.72
56 | Cc1cc(CNc2ccc3nc(C4CC4)sc3c2)no1 | -9.59
57 | Cc1cc(C(=O)N2CCN(c3nc4c(C(C)C)cccc4s3)CC2)on1 | 32
58 | CC(C)(C)c1cnc(CN2CCCCC2Cn2cccn2)o1 (stereo not drawn) | 18.8
59 | CCN(CC)C(=O)N1CCN(Cc2cnc(C)nc2)[C@H]2CS(=O)(=O)C[C@H]21 | -17.5
60 | CCN(CC(=O)NCc1nc(C2CC2)no1)Cc1ccc(Cl)cc1 | -15.6
61 | COc1ccsc1C(=O)NCCN1CCOCC1 | -7.25
62 | Fc1ccccc1Cc1noc(CN2CCC(N3CCSCC3)CC2)n1 | -3.88
63 | Cc1cc2occ(CC(=O)N3CCC4(CCCN(C)C4=O)C3)c2cc1Cl (stereo not drawn) | -8.33
64 | CN(C)c1cc(CNC(=O)c2cccc(F)c2)ccn1 | 12.7
65 | CC(Cn1ccnc1)NC(=O)N(C)Cc1ccsc1 (stereo not drawn) | -27.1
66 | CCCN(CCC)CCNc1c(-c2ccccc2)c(=O)c1=O | 1.06
67 | CCCc1noc(CN2CCCCC2Cn2cncn2)n1 (stereo not drawn) | -7.74
68 | CCN(CC)CCn1cc(NC(=O)c2ccccc2OC)cn1 | -12.2
69 | CCc1ccccc1CN1CCC(N2CCCC2=O)CC1 | -8.77

Row | SMILES | cytotoxicity at 70.5 h [%]
70 | Cn1cc(CN2CCC(c3cc(COc4ccc(Cl)cc4)[nH]n3)C2)cn1 (stereo not drawn) | 0.81
71 | CC(C)c1cc(C(=O)NCCc2nc(-c3cccnc3)n[nH]2)[nH]n1 | 11.1
72 | Cc1nnc2n1CCN(CC(O)CN1CCC(C)CC1)C2 (stereo not drawn) | -2.86
73 | CCN1CCN(C2CCN(CC(=O)NCC(F)(F)F)CC2)C1=O | -6.43
74 | Cc1ccc(CN2Cc3nnn(C)c3C(COCc3ccccc3)C2)o1 (stereo not drawn) | -8.1
75 | Cc1nnsc1C(=O)N1CCN(C(=O)C2CCC2)[C@@H]2CS(=O)(=O)C[C@@H]21 | -10.8
76 | CC(C)(C)c1ccc(OCC(N)=O)c(CN2C[C@H]3C[C@H](O)C[C@H]3C2)c1 | -7.47
77 | O=c1[nH]nc2nc(N3CCCC3)ccn12 | 5.61
78 | CCc1nc(CN2CCCN(C(=O)CC3CCCC3)CC2)cs1 | 4.58
79 | Cc1csc2c(=O)n(CCN3CCC(c4ccccc4)CC3)cnc12 | -3.26
80 | Cn1ccnc1CN1CCCN(C(=O)c2ccc(Cl)o2)CC1 | -8.18
81 | Cc1cc(NC(=O)CSc2nc(=O)ccn2C(C)C)no1 | -0.711
82 | COC1CCCN(C(=O)NCCCF)C1 (stereo not drawn) | -2.7
83 | CCc1cc(N(C)Cc2ccno2)n2nc(C)c(C)c2n1 | -2.75
84 | COc1ccc(N2CCN(Cc3noc(CC(C)C)n3)C(C)C2=O)cc1 (stereo not drawn) | -24.6
85 | O=C(c1cnccn1)N1C[C@@H]2CCN(c3cnccn3)C[C@@H]2C1 | -7.66
86 | N#Cc1nc(COc2ccc3c(c2)OCO3)oc1N1CCCC1 | -26.5
87 | COc1ccc(CNCC2CCN(c3ccccc3OC)C2)cc1O (stereo not drawn) | 5.43
88 | CCN(C(=O)CCc1ccc2[nH]ccc2c1)C1CC(=O)NC1=O (stereo not drawn) | -2.25
89 | c1coc(-c2nnc(CN3CCCC3Cn3cncn3)o2)c1 (stereo not drawn) | -1.88
90 | O=c1[nH]c(NCCO)nc2c1C1(CCCCC1)Cc1ccccc1-2 | -1.9
91 | CCCc1n[nH]cc1C(=O)N1CCC(c2nccn2CCOC)CC1 | 19
92 | COCCCNC(=O)c1ccn(-c2ccc3ccccn23)n1 | -12.6

Row | SMILES | cytotoxicity at 70.5 h [%]
93 | O=C1CO[C@H]2CN(Cc3ccccc3Br)C[C@@H]2N1 | 20.8
94 | O=c1c(NCCOCCO)c(N2CCN(c3ccccc3)CC2)c1=O | -2.63
95 | Cc1ccc(CN2Cc3nnn(C)c3C(COCCN(C)C)C2)s1 (stereo not drawn) | -4.13
96 | Clc1cccc(-n2cnnn2)c1N1CCCC1 | 3.81
97 | O=S(=O)(CCC1CCCO1)NCc1ncc(-c2ccccc2)o1 (stereo not drawn) | 5
98 | Cn1cnc2c1CCN(Cc1c(Cl)ccc3cccnc13)C2 | 0.125
99 | Clc1cccc(C(CNCc2cccnc2)N2CCOCC2)c1 (stereo not drawn) | 29.7
100 | CCn1nnc2c1C(COCC(=O)N(C)C)CN(Cc1ccco1)C2 (stereo not drawn) | 10.6
101 | CC1c2ncc(COc3cccnc3)n2CCN1Cc1cnn(C)c1 (stereo not drawn) | -9.85
102 | CCN(CC)C(=O)CSc1nc2nc(C)ccc2o1 | 11.9
103 | CCNC(=O)[C@@H]1C[C@@H](NC(=O)c2cc(C)on2)CN1Cc1ccccn1 | 24.8
104 | Cc1nc(CN(C)C2CCCN(Cc3noc(C4CC4)n3)C2)oc1C (stereo not drawn) | 14.4
105 | COc1ccnc(NC(=O)c2ccsc2)c1 | -10.1
106 | COCC1Cn2nnc(-c3cnn(C)c3)c2CN1Cc1ccco1 (stereo not drawn) | 5.04
107 | CC1(C)CC(N(Cc2cccnc2)Cc2cccc(F)c2)CC(C)(C)N1 | 2.01
108 | Cc1cc(NC(=O)c2ccc(C)c(F)c2)[nH]n1 | -1.85
109 | Cc1cnn(CCCN2C(=O)CCc3ccccc32)c1 | 11.4
110 | O=C(NCCSCc1ccc(Br)s1)C1CCCN(C(=O)c2cccs2)C1 (stereo not drawn) | -8.75
111 | O=S(=O)(N1CCOCC1)N1CCCC1Cn1cccn1 (stereo not drawn) | -11.1
112 | Cc1cnn(C2CCN(Cc3ccccc3)C2)c1N (stereo not drawn) | 16
113 | NCC(=O)N1CCC(c2cncc(Oc3cccnc3)n2)CC1 | 1.14

From ChEMBL document CHEMBL3507680, “University of Dundee, Gates Library screen for HepG2 cell viability”
